This passage reports IC50 results from patent US9133224B2, “Macrocyclic kinase inhibitors” (OSI Pharmaceuticals, LLC, priority 2010, dated 2015).

The target in one experiment is T1, FAK (Homo sapiens, UniProt Q05397).
T1 construct: endogenous in cells; host or cells: U87MG glioblastoma cells (ATCC HTB-14)
As to the kind of experiment: Cell-based capture ELISA for inhibition of FAK autophosphorylation [pY397] in U87MG cells. The gist of the method: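 U87MG cells on fibronectin-coated plates treated with compounds for 2 h at 37° C in complete growth medium (0.6% DMSO final). Lysates captured on anti-FAK ELISA plates; pY397 detected with phospho-specific antibody, HRP and chromogen at 450 nm. Variant run with 50% (v/v) mouse or human plasma.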
(An ELISA detects its analyte on a solid surface through an enzyme-linked reagent.)

For experiment [1], the target named is T2, GST-tagged full-length FAK enzyme (PTK2) (Homo sapiens, UniProt Q05397).
T2 construct: GST-tagged full-length FAK enzyme (PTK2, Invitrogen PV4085); GST; purchased Invitrogen PV4085
T2 sequence (Q05397 whole entry): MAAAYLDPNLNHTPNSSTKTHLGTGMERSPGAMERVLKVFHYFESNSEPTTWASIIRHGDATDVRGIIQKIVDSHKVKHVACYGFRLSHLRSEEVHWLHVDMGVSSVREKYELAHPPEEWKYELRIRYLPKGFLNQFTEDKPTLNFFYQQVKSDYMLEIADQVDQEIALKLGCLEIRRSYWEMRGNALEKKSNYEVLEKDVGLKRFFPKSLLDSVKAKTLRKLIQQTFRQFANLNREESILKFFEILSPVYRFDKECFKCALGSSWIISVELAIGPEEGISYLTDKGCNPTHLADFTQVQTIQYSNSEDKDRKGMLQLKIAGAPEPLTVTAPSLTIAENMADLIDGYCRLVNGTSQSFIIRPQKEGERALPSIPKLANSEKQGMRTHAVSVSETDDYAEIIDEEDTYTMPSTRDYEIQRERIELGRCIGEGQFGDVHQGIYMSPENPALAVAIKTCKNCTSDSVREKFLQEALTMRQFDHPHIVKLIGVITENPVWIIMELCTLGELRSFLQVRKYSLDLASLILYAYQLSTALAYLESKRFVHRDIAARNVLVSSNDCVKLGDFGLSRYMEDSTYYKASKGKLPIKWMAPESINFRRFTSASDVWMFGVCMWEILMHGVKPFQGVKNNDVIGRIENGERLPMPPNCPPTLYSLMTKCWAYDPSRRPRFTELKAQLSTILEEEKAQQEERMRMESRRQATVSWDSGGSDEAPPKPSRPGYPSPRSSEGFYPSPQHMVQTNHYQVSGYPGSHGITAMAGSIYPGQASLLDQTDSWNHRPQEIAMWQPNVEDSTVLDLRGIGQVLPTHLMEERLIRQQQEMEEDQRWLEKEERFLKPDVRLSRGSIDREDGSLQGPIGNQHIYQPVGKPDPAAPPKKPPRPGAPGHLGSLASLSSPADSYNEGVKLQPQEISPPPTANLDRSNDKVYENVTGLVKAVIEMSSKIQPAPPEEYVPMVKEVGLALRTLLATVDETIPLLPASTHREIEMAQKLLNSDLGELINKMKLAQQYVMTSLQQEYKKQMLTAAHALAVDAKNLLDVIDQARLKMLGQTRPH
Description: Biochemical Omnia Assay (FAK). The gist of the method:
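GST-tagged full-length human FAK, added at 50 nM to compound and a peptide (40 μM)/ATP (200 μM) solution, stated before mixing. Omnia peptide phosphorylation followed continuously by fluorescence increase. Duplicate points; IC50 by nonlinear fitting of linear progress-curve slopes.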

[2] abbreviates: 50% (v/v) mouse plasma, mean IC50, read-out: FAK Activity Mechanistic (U87MG) MP.
[3] abbreviates: no plasma present, mean IC50, read-out: FAK Activity Mechanistic (U87MG) NP.
Where [4] appears, read: 50% (v/v) human plasma, mean IC50, read-out: FAK Activity Mechanistic (U87MG) HP.
Setting [5] is: FAK Activity Mechanistic (U87MG) MP, 50% (v/v) mouse plasma, mean IC50.
[6] abbreviates: mean IC50, [ATP] = 50uM, read-out: FAK Activity Biochemical OMNIA, [ATP] = 50uM.

Like-named read-outs stand apart in the source and are kept apart here.

T1 sequence (Q05397 whole entry): as above

On to `CCOP1(=O)Cc2ccc(c(OC)c2)Nc2ncc(C(F)(F)F)c(n2)Nc2ccc(c(OC)c2C(=O)NC)-c2cnn(c2)CCCO1` (racemic) [Example 30], for which the IC50 at FAK (setting [2]) was 400 to 4000 nM; on FAK (setting [3]), under 400 nM; in experiment [1], under 400 nM.
`CCOP1(=O)Cc2cc(OC)c(cc2Cl)Nc2ncc(C(F)(F)F)c(n2)Nc2ccc(nc2C(=O)NC)-c2cnn(c2)CC2(COC2)CO1` (racemic) [Example 57]: the results for the IC50 (on FAK (setting [4]); on FAK (setting [3]); in experiment [1]) were 400 to 4000 nM, under 400 nM and under 400 nM, respectively.
For the compound `CCOP1(=O)Cc2ccc(c(OC)c2)Nc2ncc(C(F)(F)F)c(n2)Nc2ccc(nc2C(=O)NC)-c2cc(C(=O)N3CC(C)(O)C3)n(c2)CCCO1` (racemic) [Example 40], the IC50 against FAK (setting [5]) was 400 to 4000 nM; on FAK (setting [3]) it was under 400 nM; in experiment [1] it was under 400 nM.
As to `CCOP1(=O)Cc2ccc(c(Cl)c2)Nc2ncc(C(F)(F)F)c(n2)Nc2ccc(nc2C(=O)NC)-c2cnn(c2)CC2(COC2)CO1` (racemic) [Example 58], the IC50 (on FAK (setting [4]); at FAK (setting [3]); in experiment [1]) was under 400 nM each time.
As to `CCOP1(=O)Cc2ccc(c(Cl)c2)Nc2ncc(C(F)(F)F)c(n2)Nc2ccc(nc2C(=O)NC)-c2cnn(c2)CCCCO1` (racemic) [Example 25], the IC50 (at FAK (setting [4]); at FAK (setting [3]); in experiment [1]) was under 400 nM in each case.
For the compound `CCOP1(=O)Cc2ccc(c(OC)c2)Nc2ncc(C(F)(F)F)c(n2)Nc2ccc(nc2C(=O)NC)-c2cc(C(=O)N(C)C)n(c2)CCCO1` (racemic) [Example 41], the IC50 (on FAK (setting [4]); at FAK (setting [3]); in experiment [1]) was under 400 nM in each case.
As to `CCOP1(=O)Cc2ccc(c(OC)c2)Nc2ncc(C(F)(F)F)c(n2)Nc2ccc(nc2C(=O)NC)-c2cn(nc2C#N)CCCO1` (racemic) [Example 52], the IC50 (on FAK (setting [3]); in experiment [1]) was under 400 nM each time.
With `CCNC(=O)c1cc2ccc1Nc1nc(ncc1C(F)(F)F)Nc1ccc(cc1OC)CP(=O)(OCC)OCCCn1cc-2cn1` (racemic) [Example 9], the IC50 at FAK (setting [4]) is under 400 nM; on FAK (setting [2]), 400 to 4000 nM; on FAK (setting [3]) it was under 400 nM; in experiment [1], under 400 nM.
As for `CNC(=O)c1nc2ccc1Nc1nc(ncc1C(F)(F)F)Nc1ccc(cc1OC)CP(=O)(C(C)C)OCCCn1cc-2cn1` (single isomer, unassigned) [Example 68B], the IC50 (on FAK (setting [4]); on FAK (setting [2]); on FAK (setting [3]); in experiment [1] (setting [6])) was under 400 nM each time.
For `CCOP1(=O)Cc2ccc(cc2)Nc2ncc(C(F)(F)F)c(n2)Nc2ccc(nc2C(=O)NC)-c2cnn(c2)CC(C)CO1` (mixture of isomers) [Example 21], the IC50 (at FAK (setting [4]); on FAK (setting [3]); in experiment [1] (setting [6])) was under 400 nM each time.
With `CCO[P@@]1(=O)Cc2ccc(c(OC)c2)Nc2ncc(C(F)(F)F)c(n2)Nc2cc(F)c(cc2C(=O)NC)-c2cnn(c2)CCCO1.CCO[P@]1(=O)Cc2ccc(c(OC)c2)Nc2ncc(C(F)(F)F)c(n2)Nc2cc(F)c(cc2C(=O)NC)-c2cnn(c2)CCCO1` (mixture of isomers) [Example 7], the IC50 (at FAK (setting [4]); on FAK (setting [2]); at FAK (setting [3]); in experiment [1] (setting [6])) was under 400 nM throughout.
Regarding `CCOP1(=O)Cc2ccc(c(OC)c2)Nc2ncc(C(F)(F)F)c(n2)Nc2ccc(c(Cl)c2C(=O)NC)-c2cnn(c2)CCCO1` (racemic) [Example 28], the IC50 is over 4000 nM at FAK (setting [2]), 400 to 4000 nM on FAK (setting [3]) and under 400 nM in experiment [1].
Take `CCOP1(=O)Cc2ccc(c(OC)c2)Nc2ncc(C(F)(F)F)c(n2)Nc2ccc(nc2C(=O)NC)-c2cn(nc2Cl)CCCO1` (single isomer, unassigned) [Example 49A]: the IC50 at FAK (setting [4]) is over 4000 nM; on FAK (setting [2]), 400 to 4000 nM; at FAK (setting [3]) it was under 400 nM; in experiment [1] (setting [6]), under 400 nM.
`CCOP1(=O)Cc2ccc(c(F)c2)Nc2ncc(C(F)(F)F)c(n2)Nc2ccc(nc2C(=O)NC)-c2cnn(c2)CCCCO1` (racemic) [Example 23]: the IC50 (at FAK (setting [4]); on FAK (setting [3]); in experiment [1] (setting [6])) was under 400 nM each time.
Take `CCOP1(=O)Cc2ccc(c(OC)c2)Nc2ncc(C(F)(F)F)c(n2)Nc2ccc(nc2C(=O)NC)-c2cc(C(=O)O)n(c2)CCCO1` (racemic) [Example 39]: the IC50 was over 4000 nM at FAK (setting [5]), 400 to 4000 nM on FAK (setting [3]) and under 400 nM in experiment [1].
As to `CCOP1(=O)Cc2ccc(c(Cl)c2)Nc2ncc(C(F)(F)F)c(n2)Nc2ccc(nc2C(=O)NC)-c2cnn(c2)CCCO1` (single isomer, unassigned) [Example 24A], the IC50 at FAK (setting [4]) is over 4000 nM; on FAK (setting [2]), 400 to 4000 nM; at FAK (setting [3]), under 400 nM; in experiment [1] (setting [6]), under 400 nM.
As to `CCOP1(=O)Cc2ccc(c(OC)c2)Nc2ncc(C(F)(F)F)c(n2)Nc2ccc(nc2C(=O)NC)-c2cc(C(=O)NC)n(c2)CCCO1` (racemic) [Example 42], the IC50 was under 400 nM on FAK (setting [4]), 400 to 4000 nM against FAK (setting [5]), under 400 nM on FAK (setting [3]) and under 400 nM in experiment [1].
Consider `CCOP1(=O)Cc2ccc(cc2)Nc2ncc(C(F)(F)F)c(n2)Nc2ccc(cc2C(=O)NC)-c2cnn(c2)CCCO1` (racemic) [Example 8], for which the IC50 (at FAK (setting [4]); on FAK (setting [3]); in experiment [1]) was under 400 nM throughout.
As to `CCOP1(=O)Cc2ccc(c(OC)c2)Nc2ncc(C(F)(F)F)c(n2)Nc2ccc(nc2C(=O)NC)-c2cnn(c2)CC(F)(F)CO1` (single isomer, unassigned) [Example 59A], the IC50 on FAK (setting [4]) is 400 to 4000 nM; on FAK (setting [3]), under 400 nM; in experiment [1] (read-out: FAK Activity Biochemical OMNIA, [ATP] = 50uM, mean IC50, [ATP] = 50uM) it was under 400 nM.
With `CCOP1(=O)Cc2cc(OC)c(cc2Cl)Nc2ncc(C(F)(F)F)c(n2)Nc2ccc(nc2C(=O)NC)-c2cnn(c2)CC2(COC2)CO1` (single isomer, unassigned) [Example 57A], the IC50 was over 4000 nM at FAK (setting [4]), 400 to 4000 nM at FAK (setting [2]), under 400 nM on FAK (setting [3]) and under 400 nM in experiment [1].
On to `CCOP1(=O)Cc2ccc(c(OC)c2)Nc2ncc(C(F)(F)F)c(n2)Nc2ccc(nc2C(=O)NC)-c2cn(nc2OC)CCCO1` (racemic) [Example 48], for which the IC50 was under 400 nM on FAK (setting [4]), 400 to 4000 nM at FAK (setting [2]), under 400 nM on FAK (setting [3]) and under 400 nM in experiment [1].
As for `CCCP1(=O)Cc2ccc(c(OC)c2)Nc2ncc(C(F)(F)F)c(n2)Nc2ccc(cc2C(=O)NC)-c2cnn(c2)CCCO1` (racemic) [Example 66], the IC50 (at FAK (setting [4]); at FAK (setting [2]); at FAK (setting [3]); in experiment [1] (setting [6])) was under 400 nM in each case.
Turning to `CCNC(=O)c1cc2ccc1Nc1nc(ncc1C(F)(F)F)Nc1ccc(cc1)CP(=O)(OCC)OCCCn1cc-2cn1` (racemic) [Example 10], the IC50 on FAK (setting [4]) was over 4000 nM; at FAK (setting [3]), 400 to 4000 nM; in experiment [1], under 400 nM.
Take `CCOP1(=O)Cc2ccc(c(OC)c2)Nc2ncc(C(F)(F)F)c(n2)Nc2ccc(nc2C(=O)NC)-c2cnn(c2C#N)CCCO1` (racemic) [Example 53]: the results for the IC50 (on FAK (setting [3]); in experiment [1] (setting [6])) were over 4000 nM and 400 to 4000 nM, respectively.
`CCOP1(=O)Cc2ccc(c(OC)c2)Nc2ncc(C(F)(F)F)c(n2)Nc2ccc(nc2C(=O)NC)-c2cnn(c2)CC(C)(C)CO1` (racemic) [Example 47]: the IC50 (at FAK (setting [4]); on FAK (setting [3]); in experiment [1]) was under 400 nM each time.
